Test results reported in ChEMBL document CHEMBL5291721, “A preclinical secondary pharmacology resource illuminates target-adverse drug reaction associations of marketed drugs” (Nat Commun, 2023).

Legend:
[1] = target: T1, Progesterone receptor (Homo sapiens, UniProt P06401)
T1 sequence (P06401 whole entry): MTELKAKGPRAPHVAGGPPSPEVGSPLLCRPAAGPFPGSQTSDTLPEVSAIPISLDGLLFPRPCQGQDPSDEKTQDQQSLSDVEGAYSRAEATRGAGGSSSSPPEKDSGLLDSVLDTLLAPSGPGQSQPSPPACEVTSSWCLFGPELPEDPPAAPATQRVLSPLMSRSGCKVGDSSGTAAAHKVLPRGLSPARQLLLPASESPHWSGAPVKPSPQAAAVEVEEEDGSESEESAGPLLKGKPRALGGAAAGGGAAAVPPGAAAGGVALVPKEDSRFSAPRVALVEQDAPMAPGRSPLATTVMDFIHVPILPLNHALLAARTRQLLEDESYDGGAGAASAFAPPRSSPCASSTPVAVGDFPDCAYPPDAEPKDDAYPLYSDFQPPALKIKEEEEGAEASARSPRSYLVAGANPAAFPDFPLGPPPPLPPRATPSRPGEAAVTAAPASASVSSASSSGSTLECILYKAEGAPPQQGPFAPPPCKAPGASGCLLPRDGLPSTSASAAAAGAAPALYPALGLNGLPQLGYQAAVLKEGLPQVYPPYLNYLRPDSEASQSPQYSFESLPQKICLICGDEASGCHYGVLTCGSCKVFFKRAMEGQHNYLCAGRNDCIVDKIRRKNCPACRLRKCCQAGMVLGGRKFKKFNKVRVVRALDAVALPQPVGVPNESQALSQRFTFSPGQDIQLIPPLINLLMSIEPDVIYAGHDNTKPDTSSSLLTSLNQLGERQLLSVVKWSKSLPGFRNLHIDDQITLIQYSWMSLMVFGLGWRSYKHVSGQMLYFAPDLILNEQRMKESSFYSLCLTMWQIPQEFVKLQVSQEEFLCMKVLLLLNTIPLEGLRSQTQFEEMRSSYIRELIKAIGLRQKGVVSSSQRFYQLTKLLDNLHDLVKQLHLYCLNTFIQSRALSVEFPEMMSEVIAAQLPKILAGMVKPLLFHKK

[2] = target: T2, Muscarinic acetylcholine receptor M1 (Homo sapiens, UniProt P11229)
T2 sequence (P11229 whole entry): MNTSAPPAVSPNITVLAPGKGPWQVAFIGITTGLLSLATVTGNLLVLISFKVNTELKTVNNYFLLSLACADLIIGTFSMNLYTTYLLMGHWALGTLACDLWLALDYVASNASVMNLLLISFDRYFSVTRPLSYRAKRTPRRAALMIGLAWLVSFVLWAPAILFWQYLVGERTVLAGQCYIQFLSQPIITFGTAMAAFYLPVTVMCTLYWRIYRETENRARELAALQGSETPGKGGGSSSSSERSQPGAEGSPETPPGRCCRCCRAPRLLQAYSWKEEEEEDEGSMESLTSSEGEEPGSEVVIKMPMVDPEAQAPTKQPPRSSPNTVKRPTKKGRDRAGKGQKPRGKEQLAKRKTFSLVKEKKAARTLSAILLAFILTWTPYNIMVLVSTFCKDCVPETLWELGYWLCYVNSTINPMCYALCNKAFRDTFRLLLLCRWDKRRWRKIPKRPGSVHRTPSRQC

[3] = target: Gamma-aminobutyric acid receptor subunit alpha-1/alpha-2/beta-2/gamma-2 (Homo sapiens, UniProt P14867+P18507+P47869+P47870); type: functional, cell-based
Chain of Gamma-aminobutyric acid receptor subunit alpha-1/alpha-2/beta-2/gamma-2 (P14867 whole entry): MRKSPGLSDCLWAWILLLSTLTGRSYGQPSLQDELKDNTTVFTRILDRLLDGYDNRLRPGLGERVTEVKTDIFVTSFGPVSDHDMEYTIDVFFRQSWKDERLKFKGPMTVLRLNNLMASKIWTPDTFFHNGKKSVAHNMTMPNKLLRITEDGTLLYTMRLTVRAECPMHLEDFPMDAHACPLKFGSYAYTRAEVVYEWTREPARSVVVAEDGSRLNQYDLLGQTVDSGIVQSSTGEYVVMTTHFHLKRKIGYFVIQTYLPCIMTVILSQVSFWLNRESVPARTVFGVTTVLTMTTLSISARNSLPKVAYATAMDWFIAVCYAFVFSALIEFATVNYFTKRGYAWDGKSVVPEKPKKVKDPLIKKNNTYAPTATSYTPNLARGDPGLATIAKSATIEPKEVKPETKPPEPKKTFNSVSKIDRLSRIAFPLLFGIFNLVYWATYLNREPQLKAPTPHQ
Chain of Gamma-aminobutyric acid receptor subunit alpha-1/alpha-2/beta-2/gamma-2 (P47870 whole entry): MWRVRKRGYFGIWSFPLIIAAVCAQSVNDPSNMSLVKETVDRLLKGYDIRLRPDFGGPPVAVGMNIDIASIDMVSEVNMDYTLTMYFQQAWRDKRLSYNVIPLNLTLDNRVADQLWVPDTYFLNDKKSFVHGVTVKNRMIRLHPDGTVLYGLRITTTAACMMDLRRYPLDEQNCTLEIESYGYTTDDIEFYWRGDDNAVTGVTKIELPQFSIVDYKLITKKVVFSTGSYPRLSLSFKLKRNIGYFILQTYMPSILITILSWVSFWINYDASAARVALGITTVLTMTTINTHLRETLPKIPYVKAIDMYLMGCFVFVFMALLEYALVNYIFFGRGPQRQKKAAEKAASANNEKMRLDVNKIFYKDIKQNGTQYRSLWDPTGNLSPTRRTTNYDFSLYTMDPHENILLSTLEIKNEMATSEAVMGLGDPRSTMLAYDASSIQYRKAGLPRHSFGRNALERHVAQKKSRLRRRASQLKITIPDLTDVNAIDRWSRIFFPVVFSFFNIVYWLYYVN
Chain of Gamma-aminobutyric acid receptor subunit alpha-1/alpha-2/beta-2/gamma-2 (P18507 whole entry): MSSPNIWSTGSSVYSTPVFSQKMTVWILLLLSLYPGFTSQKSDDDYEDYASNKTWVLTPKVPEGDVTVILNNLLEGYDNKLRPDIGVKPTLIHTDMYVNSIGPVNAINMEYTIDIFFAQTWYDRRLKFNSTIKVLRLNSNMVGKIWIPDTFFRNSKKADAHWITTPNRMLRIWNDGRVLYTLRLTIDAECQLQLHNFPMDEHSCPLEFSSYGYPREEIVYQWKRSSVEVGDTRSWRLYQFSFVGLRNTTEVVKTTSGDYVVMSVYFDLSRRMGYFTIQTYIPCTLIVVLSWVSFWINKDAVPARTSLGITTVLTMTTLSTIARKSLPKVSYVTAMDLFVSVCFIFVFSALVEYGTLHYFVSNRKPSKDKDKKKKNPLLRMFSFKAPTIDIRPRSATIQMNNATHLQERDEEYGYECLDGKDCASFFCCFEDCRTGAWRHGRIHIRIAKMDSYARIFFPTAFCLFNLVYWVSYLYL
Chain of Gamma-aminobutyric acid receptor subunit alpha-1/alpha-2/beta-2/gamma-2 (P47869 whole entry): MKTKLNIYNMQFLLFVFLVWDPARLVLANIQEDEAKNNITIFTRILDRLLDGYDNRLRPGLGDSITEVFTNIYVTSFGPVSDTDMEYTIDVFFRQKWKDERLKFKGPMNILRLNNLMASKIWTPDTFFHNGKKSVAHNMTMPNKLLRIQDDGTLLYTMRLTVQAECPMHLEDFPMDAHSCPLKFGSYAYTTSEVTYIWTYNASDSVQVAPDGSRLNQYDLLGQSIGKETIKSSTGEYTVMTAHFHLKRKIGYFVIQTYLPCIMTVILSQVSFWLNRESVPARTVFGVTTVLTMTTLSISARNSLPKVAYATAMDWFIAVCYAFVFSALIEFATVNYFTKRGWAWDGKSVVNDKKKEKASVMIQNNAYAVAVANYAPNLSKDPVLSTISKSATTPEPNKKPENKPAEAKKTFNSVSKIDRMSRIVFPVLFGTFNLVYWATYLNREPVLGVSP

[4] = target: Neurotensin receptor type 1 (Homo sapiens, UniProt P30989)
Chain of Neurotensin receptor type 1 (P30989 whole entry): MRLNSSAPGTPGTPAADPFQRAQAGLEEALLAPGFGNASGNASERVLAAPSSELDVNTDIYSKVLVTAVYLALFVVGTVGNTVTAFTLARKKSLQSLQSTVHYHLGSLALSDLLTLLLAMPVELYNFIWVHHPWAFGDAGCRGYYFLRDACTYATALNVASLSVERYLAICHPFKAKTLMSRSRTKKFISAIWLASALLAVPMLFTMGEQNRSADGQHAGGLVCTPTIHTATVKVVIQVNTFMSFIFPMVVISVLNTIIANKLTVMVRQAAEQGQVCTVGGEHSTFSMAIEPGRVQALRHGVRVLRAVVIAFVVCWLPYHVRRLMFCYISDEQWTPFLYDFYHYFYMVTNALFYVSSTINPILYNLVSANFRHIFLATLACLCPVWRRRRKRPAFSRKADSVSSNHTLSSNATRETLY

[5] = target: T3, Endothelin receptor type B (Homo sapiens, UniProt P24530)
T3 sequence (P24530 whole entry): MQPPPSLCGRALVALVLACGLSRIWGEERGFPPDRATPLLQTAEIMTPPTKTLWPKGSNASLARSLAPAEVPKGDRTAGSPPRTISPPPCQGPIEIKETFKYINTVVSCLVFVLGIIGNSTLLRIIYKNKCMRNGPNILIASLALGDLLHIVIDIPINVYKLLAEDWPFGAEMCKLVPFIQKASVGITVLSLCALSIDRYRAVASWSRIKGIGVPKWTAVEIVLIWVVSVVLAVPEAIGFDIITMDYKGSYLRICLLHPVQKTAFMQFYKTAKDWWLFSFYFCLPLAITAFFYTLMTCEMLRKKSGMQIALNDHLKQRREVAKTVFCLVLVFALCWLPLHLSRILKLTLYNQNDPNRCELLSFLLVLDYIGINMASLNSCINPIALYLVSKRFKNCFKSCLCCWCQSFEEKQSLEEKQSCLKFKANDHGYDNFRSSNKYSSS

[6] = target: Voltage-dependent N-type calcium channel subunit alpha-1B (Rattus norvegicus, UniProt Q02294); type: functional
Chain of Voltage-dependent N-type calcium channel subunit alpha-1B (Q02294 whole entry): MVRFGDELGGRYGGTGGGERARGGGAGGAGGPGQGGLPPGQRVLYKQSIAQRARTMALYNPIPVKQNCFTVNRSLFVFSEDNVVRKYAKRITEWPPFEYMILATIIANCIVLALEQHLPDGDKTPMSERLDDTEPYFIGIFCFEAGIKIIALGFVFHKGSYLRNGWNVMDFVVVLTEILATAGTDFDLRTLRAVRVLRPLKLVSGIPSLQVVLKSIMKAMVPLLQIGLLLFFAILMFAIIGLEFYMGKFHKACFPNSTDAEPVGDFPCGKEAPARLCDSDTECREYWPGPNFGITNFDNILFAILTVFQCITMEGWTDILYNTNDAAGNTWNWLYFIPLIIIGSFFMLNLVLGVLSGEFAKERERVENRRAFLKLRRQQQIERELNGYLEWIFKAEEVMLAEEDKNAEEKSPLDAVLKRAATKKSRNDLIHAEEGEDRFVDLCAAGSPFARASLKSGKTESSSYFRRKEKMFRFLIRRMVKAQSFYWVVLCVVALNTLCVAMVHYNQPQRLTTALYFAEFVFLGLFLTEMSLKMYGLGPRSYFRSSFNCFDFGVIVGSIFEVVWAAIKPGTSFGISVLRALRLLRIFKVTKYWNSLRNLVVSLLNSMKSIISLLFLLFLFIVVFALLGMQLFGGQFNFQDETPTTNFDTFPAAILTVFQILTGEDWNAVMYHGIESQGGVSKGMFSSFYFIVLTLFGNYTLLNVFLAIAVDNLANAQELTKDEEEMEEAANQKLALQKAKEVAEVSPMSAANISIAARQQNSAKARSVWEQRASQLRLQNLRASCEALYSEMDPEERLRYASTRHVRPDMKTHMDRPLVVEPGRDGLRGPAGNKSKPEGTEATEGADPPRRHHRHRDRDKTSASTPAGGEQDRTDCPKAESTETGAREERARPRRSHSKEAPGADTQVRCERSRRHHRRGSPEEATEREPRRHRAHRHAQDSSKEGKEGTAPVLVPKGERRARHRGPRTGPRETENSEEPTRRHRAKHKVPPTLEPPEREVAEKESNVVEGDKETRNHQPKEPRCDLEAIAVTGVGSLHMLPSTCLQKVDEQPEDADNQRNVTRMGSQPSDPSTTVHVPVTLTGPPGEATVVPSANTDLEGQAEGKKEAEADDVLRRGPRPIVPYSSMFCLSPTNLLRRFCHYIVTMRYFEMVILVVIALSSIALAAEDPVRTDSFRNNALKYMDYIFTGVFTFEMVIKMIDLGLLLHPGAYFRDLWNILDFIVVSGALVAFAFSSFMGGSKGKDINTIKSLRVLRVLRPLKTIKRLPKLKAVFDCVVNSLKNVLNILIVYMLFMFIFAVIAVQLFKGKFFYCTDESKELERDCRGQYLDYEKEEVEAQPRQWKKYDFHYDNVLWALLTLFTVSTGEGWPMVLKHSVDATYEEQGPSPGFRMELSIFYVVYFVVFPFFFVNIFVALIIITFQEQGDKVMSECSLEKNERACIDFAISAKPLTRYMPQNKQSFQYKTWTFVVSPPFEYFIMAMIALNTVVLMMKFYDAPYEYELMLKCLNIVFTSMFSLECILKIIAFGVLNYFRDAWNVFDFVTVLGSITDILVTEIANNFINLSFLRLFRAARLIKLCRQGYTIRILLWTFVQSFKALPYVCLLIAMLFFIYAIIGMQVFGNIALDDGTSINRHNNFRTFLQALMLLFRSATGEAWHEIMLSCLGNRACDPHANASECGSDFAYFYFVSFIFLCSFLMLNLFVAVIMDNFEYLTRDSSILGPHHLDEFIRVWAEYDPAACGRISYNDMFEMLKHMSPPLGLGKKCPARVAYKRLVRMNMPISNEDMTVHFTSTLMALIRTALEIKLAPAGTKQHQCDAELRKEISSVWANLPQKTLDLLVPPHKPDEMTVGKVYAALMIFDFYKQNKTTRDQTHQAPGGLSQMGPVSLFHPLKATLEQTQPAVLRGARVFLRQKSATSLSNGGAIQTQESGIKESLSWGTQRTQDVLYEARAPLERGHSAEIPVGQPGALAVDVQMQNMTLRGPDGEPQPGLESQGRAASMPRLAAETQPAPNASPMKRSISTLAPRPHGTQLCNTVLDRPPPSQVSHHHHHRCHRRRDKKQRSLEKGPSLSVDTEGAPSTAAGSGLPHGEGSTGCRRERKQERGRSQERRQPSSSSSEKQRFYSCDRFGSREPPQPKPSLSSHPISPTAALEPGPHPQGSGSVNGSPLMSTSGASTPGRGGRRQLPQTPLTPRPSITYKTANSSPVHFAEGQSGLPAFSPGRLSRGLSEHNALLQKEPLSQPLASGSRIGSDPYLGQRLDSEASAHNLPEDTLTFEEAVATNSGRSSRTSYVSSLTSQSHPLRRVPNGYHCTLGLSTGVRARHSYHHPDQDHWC

[7] = target: T4, Gastric inhibitory polypeptide receptor (Homo sapiens, UniProt P48546)
T4 sequence (P48546 whole entry): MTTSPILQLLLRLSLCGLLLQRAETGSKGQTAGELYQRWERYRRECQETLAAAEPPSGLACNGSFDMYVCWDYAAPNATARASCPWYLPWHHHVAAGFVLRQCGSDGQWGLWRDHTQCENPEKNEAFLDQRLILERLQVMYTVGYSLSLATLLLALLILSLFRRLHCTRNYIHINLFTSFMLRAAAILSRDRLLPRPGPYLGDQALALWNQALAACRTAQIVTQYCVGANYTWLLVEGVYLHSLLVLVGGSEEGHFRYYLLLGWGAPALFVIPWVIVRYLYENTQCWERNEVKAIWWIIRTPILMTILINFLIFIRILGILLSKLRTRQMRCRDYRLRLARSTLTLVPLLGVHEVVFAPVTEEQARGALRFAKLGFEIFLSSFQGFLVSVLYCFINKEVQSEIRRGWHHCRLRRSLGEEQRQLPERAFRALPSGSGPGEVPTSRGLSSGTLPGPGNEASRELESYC

[8] = target: T5, Neuropeptide Y receptor type 2 (Homo sapiens, UniProt P49146)
T5 sequence (P49146 whole entry): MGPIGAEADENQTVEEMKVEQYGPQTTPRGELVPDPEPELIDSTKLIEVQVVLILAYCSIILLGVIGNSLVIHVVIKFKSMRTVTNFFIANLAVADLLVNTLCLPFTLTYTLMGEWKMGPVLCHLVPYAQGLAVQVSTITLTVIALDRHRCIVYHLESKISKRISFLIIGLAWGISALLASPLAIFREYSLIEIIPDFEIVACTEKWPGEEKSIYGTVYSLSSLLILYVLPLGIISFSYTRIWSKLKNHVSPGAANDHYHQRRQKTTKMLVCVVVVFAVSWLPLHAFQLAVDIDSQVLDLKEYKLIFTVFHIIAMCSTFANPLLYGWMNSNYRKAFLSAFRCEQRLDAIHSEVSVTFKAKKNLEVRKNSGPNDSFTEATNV
Note: assay procedure not described here.

O=C(O)c1cccc(-c2noc(-c3ccccc3F)n2)c1
AC50 [1]: > 30 µM

CO/N=C(\C(=O)N[C@@H]1C(=O)N2C(C(=O)OCOC(=O)C(C)(C)C)=C(C)CS[C@H]12)c1csc(N)n1
AC50 [2]: > 30 µM
AC50 [3]: > 30 µM

O=C(Cn1ccnc1[N+](=O)[O-])NCc1ccccc1 [BENZNIDAZOLE]
AC50 [2]: > 30 µM

CCCC(=O)N1CCCN(c2nc(N)c3cc(OC)c(OC)cc3n2)CC1 [BUNAZOSIN]
AC50 [3]: > 30 µM

COCC1=C(C(=O)OC(C)OC(=O)OC(C)C)N2C(=O)[C@@H](NC(=O)/C(=N\OC)c3csc(N)n3)[C@H]2SC1 (some centres not stated) [CEFPODOXIME PROXETIL]
AC50 [2]: > 30 µM
AC50 [3]: > 30 µM

CC(C)(N)Cc1ccc(Cl)cc1 [CHLORPHENTERMINE]
AC50 [4]: > 30 µM
AC50 [5]: > 30 µM
AC50 [6]: > 10 µM
AC50 [7]: > 30 µM
AC50 [8]: > 30 µM
AC50 [1]: > 30 µM

NS(=O)(=O)c1cc2c(cc1Cl)NC(CC1CCCC1)NS2(=O)=O (configuration not stated) [CYCLOPENTHIAZIDE]
AC50 [2]: > 30 µM
AC50 [3]: > 30 µM

Nc1nc(-n2cc(C(=O)O)c(=O)c3cc(F)c(N4CC(O)C4)c(Cl)c32)c(F)cc1F [DELAFLOXACIN]
AC50 [2]: > 30 µM

O=C(Nc1ccccc1)OCC(CN1CCCCC1)OC(=O)Nc1ccccc1 (configuration not stated) [DIPERODON]
AC50 [4]: > 30 µM
AC50 [5]: > 30 µM
AC50 [6]: > 10 µM
AC50 [7]: > 30 µM
AC50 [8]: > 30 µM
AC50 [1]: > 30 µM

N/N=c1/cc2c(n[nH]1)CCN(C(=O)c1ccccc1)C2 [ENDRALAZINE]
AC50 [2]: > 30 µM
AC50 [3]: > 30 µM

C=C1C[C@@H]2[C@H](CC[C@]3(C)C(=O)CC[C@@H]23)[C@@]2(C)C=CC(=O)C=C12 [EXEMESTANE]
AC50 [4]: > 30 µM
AC50 [5]: > 30 µM
AC50 [6]: > 10 µM
AC50 [7]: > 30 µM
AC50 [8]: > 30 µM
AC50 [1]: 29.3 µM

CC(C)=CCC1C(=O)N(c2ccccc2)N(c2ccccc2)C1=O [FEPRAZONE]
AC50 [2]: > 30 µM

CC(=O)N(CC(O)CO)c1c(I)c(C(=O)NCC(O)CO)c(I)c(C(=O)NCC(O)CO)c1I (configuration not stated) [IOHEXOL]
AC50 [1]: > 30 µM

CN1C(=O)N(C)C2C1N(C)C(=O)N2C (configuration not stated) [MEBICAR]
AC50 [2]: > 30 µM
AC50 [3]: > 30 µM

NC(=O)c1cccc2cn(-c3ccc([C@@H]4CCCNC4)cc3)nc12 [NIRAPARIB]
AC50 [2]: 15.3 µM

Nc1ccc(/N=N/c2ccccc2)c(N)n1 [PHENAZOPYRIDINE]
AC50 [2]: > 30 µM
AC50 [3]: > 30 µM

CN(C)CCCN1c2ccccc2Sc2ccccc21 [PROMAZINE]
AC50 [4]: > 30 µM
AC50 [5]: > 30 µM
AC50 [6]: > 10 µM
AC50 [7]: > 30 µM
AC50 [8]: > 30 µM
AC50 [1]: > 30 µM

O=C(O)CCn1c2c(c3ccccc31)C[C@H](NS(=O)(=O)c1ccc(F)cc1)CC2 [RAMATROBAN]
AC50 [5]: > 10 µM
AC50 [8]: > 10 µM

O=P(O)(O)C(O)(Cc1cccnc1)P(=O)(O)O [RISEDRONIC ACID]
AC50 [4]: > 30 µM
AC50 [5]: > 30 µM
AC50 [6]: > 10 µM
AC50 [7]: > 30 µM
AC50 [8]: > 30 µM
AC50 [1]: > 30 µM

O=C1CCC(N2C(=O)c3ccccc3C2=O)C(=O)N1 (configuration not stated) [THALIDOMIDE]
AC50 [4]: > 30 µM
AC50 [5]: > 30 µM
AC50 [6]: > 10 µM
AC50 [7]: > 30 µM
AC50 [8]: > 30 µM
AC50 [1]: > 30 µM
